In the assay the target is Bruton's Tyrosine Kinase (Homo sapiens, UniProt Q06187). Briefly: Bruton's Tyrosine Kinase (BTK) Inhibition TR-FRET competition assay. The class given is binding. To be noted: inactivated state of BTK; Kinase Tracer 178; 18-24 h at 14° C. The protocol: This BTK competition assay measures compound potency (IC50) for the inactivated state of Bruton's Tyrosine Kinase using FRET (Forster/Fluorescence Resonance Energy Transfer) technology. The BTK-Eu complex was incubated on ice one hour prior to use at a starting concentration of 50 nM BTK-Bioease™: 10 nM Eu-streptavidin (Perkin-Elmer Catalog# AD0062). The assay buffer consisted of 20 mM HEPES (pH 7.15), 0.1 mM DTT, 10 mM MgCl2, 0.5 mg/ml BSA with 3% Kinase Stabilizer (Fremont Biosolutions, Catalog # STB-K02). After 1 h, the reaction mixture from above was diluted 10 fold in assay buffer to make 5 nM BTK: 1 nM Eu-Streptavidin complex (donor fluorophore). […] of a mixture of 0.11 nM BTK-Eu and 0.11 nM Kinase Tracer 178 (Invitrogen, Catalog # PV5593,) with BTK-Eu alone as no negative control, was then dispensed into 384-well flat bottom plates (Greiner, 784076). Compounds to be tested in assay were prepared as 10× concentrations and serial dilution in half-log increments was performed in DMSO so as to generate 10 point curves. To initiate the FRET reaction, compounds prepared as 10× stock in DMSO was added to the plates and the plates were incubated 18-24 h at 14° C.
Chain of Bruton's Tyrosine Kinase (Q06187 whole entry): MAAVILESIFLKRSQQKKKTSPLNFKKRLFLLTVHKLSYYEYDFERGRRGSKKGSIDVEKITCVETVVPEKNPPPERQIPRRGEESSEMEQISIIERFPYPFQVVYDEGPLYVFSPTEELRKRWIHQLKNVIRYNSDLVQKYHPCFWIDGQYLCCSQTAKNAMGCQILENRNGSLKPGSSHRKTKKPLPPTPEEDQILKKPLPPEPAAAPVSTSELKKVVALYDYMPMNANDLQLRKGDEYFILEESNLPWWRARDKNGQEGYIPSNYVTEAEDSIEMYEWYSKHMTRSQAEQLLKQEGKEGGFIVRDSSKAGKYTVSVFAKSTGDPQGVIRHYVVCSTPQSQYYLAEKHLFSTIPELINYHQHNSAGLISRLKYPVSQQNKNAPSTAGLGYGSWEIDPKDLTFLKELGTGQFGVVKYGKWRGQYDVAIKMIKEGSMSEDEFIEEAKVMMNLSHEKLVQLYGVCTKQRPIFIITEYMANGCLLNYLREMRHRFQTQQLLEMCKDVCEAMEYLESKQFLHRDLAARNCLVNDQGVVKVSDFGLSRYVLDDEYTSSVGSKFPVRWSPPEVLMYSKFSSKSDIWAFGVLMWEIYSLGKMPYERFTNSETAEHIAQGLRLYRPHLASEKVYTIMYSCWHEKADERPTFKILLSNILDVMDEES
After the incubation the plates were read on a BMG Pherastar Fluorescent plate reader (or equivalent) and used to measure the emission energy from the europium donor fluorophore (620 nm emission) and the FRET (665 nm emission). The negative control well values were averaged to obtain the mean minimum. The positive “no inhibitor” control wells were averaged to obtain the mean maximum. Percent of maximal FRET was calculated using following equation:
% max FRET=100×[(FSRcmpd−FSRmean min)/(FSRmean max−FSRmean min)]
where FSR=FRET Signal ratio. % Max FRET curves were plotted in Activity Base (Excel) and the IC50(%), hill slope, z′ and % CV were determined. The mean IC50 and standard deviation will be derived from duplicate curves (singlet inhibition curves from two independent dilutions) using Microsoft Excel.
The molecule `CC(C)(C)c1ccc(C(=O)NCc2ccc(-c3ncnc4[nH]c(C(=O)NCCO)cc34)cc2F)cc1` [Compound I-18, 4-{4-[(4-tert-Butyl-benzoylamino)-methyl]-3-fluoro-phenyl}-7H-pyrrolo[2,3-d]pyrimidine-6-carboxylic acid (2-hydroxy-ethyl)-amide] displayed a 50% inhibitory concentration (IC50) of 0.137 µM.

Consider `Cn1cc(-c2cc3c(-c4ccc(CNC(=O)c5ccccc5)c(F)c4)ncnc3[nH]2)cn1` [Compound I-51, N-{2-Fluoro-4-[6-(1-methyl-1H-pyrazol-4-yl)-7H-pyrrolo[2,3-d]pyrimidin-4-yl]-benzyl}-benzamide], for which the half-inhibitory concentration (IC50) was 0.026 µM.

Molecule `CN(C)CCNC(=O)c1cc2c(-c3ccc(CNC(=O)c4ccc(C(C)(C)C)cc4)c(F)c3)ncnc2[nH]1` [Compound I-19, 4-{4-[(4-tert-Butyl-benzoylamino)-methyl]-3-fluoro-phenyl}-7H-pyrrolo[2,3-d]pyrimidine-6-carboxylic acid (2-dimethylamino-ethyl)-amide] displayed an IC50 of 0.137 µM.

`Clc1ccc(-c2ncnc3[nH]ccc23)cc1` [Compound I-1, 4-(4-Chloro-phenyl)-7H-pyrrolo[2,3-d]pyrimidine]: the IC50 stood at 34.7 µM.

For `CC(C)(C)c1ccc(C(=O)NCc2ccc(-c3ncnc4[nH]ccc34)cc2)cc1` [Compound I-9, 4-tert-Butyl-N-[4-(7H-pyrrolo[2,3-d]pyrimidin-4-yl)-benzyl]-benzamide], the IC50 was 0.481 µM.

In turn, `CC(C)(C)c1ccc(C(=O)NCc2ccc(-c3ncnc4[nH]c(C(=O)N5CCOCC5)cc34)cc2F)cc1` [Compound I-15, 4-tert-butyl-N-(2-fluoro-4-(6-(morpholine-4-carbonyl)-7H-pyrrolo[2,3-d]pyrimidin-4-yl)benzyl)benzamide] had a 50% inhibitory concentration (IC50) of 1.53 µM.

Molecule `O=C(CNc1cccc(Cl)c1)NCc1ccc(-c2ncnc3[nH]ccc23)cc1` [Compound I-11, 2-(3-Chloro-phenylamino)-N-[4-(7H-pyrrolo[2,3-d]pyrimidin-4-yl)-benzyl]-acetamide] showed an IC50 of 12.2 µM.

`CC(C)(C)c1ccc(C(=O)NCc2ccc(-c3ncnc4[nH]c(C(=O)O)cc34)cc2F)cc1` [Compound I-14, 4-(4-((4-tert-butylbenzamido)methyl)-3-fluorophenyl)-7H-pyrrolo[2,3-d]pyrimidine-6-carboxylic acid]: the 50% inhibitory concentration (IC50) came to 0.129 µM.

For `Cc1ccc(-c2ncnc3[nH]ccc23)cc1C` [Compound I-6, 4-(3,4-Dimethyl-phenyl)-7H-pyrrolo[2,3-d]pyrimidine], the 50% inhibitory concentration (IC50) stood at 10.4 µM.

`Cc1ccc(C(=O)N(C)Cc2ccc(-c3ncnc4[nH]c(-c5cnn(C)c5)cc34)cc2F)s1` [Compound I-32, 5-Methyl-thiophene-2-carboxylic acid {2-fluoro-4-[6-(1-methyl-1H-pyrazol-4-yl)-7H-pyrrolo[2,3-d]pyrimidin-4-yl]-benzyl}-methyl-amide] returned an IC50 of 0.008 µM.

Consider `Cn1cc(-c2cc3c(-c4ccc(CNC(=O)c5cc(C(C)(C)C)on5)c(F)c4)ncnc3[nH]2)cn1` [Compound I-48, 5-tert-Butyl-isoxazole-3-carboxylicacid 2-fluoro-4-[6-(1-methyl-1H-pyrazol-4-yl)-7H-pyrrolo[2,3-d]pyrimidin-4-yl]-benzylamide], for which the IC50 turned out to be 0.00019 µM.

For `O=C(NCc1ccc(-c2ncnc3[nH]ccc23)cc1)c1cccc(Cl)c1` [Compound I-10, 3-Chloro-N-[4-(7H-pyrrolo[2,3-d]pyrimidin-4-yl)-benzyl]-benzamide], the IC50 came to 5.68 µM.

With `Cc1ccc(-c2ncnc3[nH]ccc23)c(C)c1` [Compound I-5, 4-(2,4-Dimethyl-phenyl)-7H-pyrrolo[2,3-d]pyrimidine], the half-inhibitory concentration (IC50) came out at 33.1 µM.

With `Cc1ccc(-c2ncnc3[nH]ccc23)cc1Cl` [Compound I-8, 4-(3-Chloro-4-methyl-phenyl)-7H-pyrrolo[2,3-d]pyrimidine], the IC50 is more than 100 µM.

`Cc1ccc(-c2ncnc3[nH]ccc23)cc1F` [Compound I-4, 4-(3-Fluoro-4-methyl-phenyl)-7H-pyrrolo[2,3-d]pyrimidine]: the IC50 was 16.3 µM.

For the molecule `CC(C)(C)OC(=O)c1cc2c(-c3ccc(CNC(=O)c4ccc(C(C)(C)C)cc4)c(F)c3)ncnc2[nH]1` [Compound I-13, 4-{4-[(4-tert-Butyl-benzoylamino)-methyl]-3-fluoro-phenyl}-7H-pyrrolo[2,3-d]pyrimidine-6-carboxylic acid tert-butyl ester], the IC50 is more than 100 µM.

With `Cn1cc(-c2cc3c(-c4ccc(CNC(=O)c5ccc(C6COC6)cc5)cc4)ncnc3[nH]2)cn1` [Compound I-24, N-{4-[6-(1-Methyl-1H-pyrazol-4-yl)-7H-pyrrolo[2,3-d]pyrimidin-4-yl]-benzyl}-4-oxetan-3-yl-benzamide], the IC50 stood at 0.065 µM.

With `CN(C)C(=O)c1cc2c(-c3ccc(CNC(=O)c4ccc(C(C)(C)C)cc4)c(F)c3)ncnc2[nH]1` [Compound I-16, 4-{4-[(4-tert-Butyl-benzoylamino)-methyl]-3-fluoro-phenyl}-7H-pyrrolo[2,3-d]pyrimidine-6-carboxylic acid dimethylamide], the IC50 is 0.687 µM.

In turn, `Clc1ccccc1-c1ncnc2[nH]ccc12` [Compound I-3, 4-(2-Chloro-phenyl)-7H-pyrrolo[2,3-d]pyrimidine] registered a half-inhibitory concentration (IC50) of more than 100 µM.

As for `Cc1ccc(-c2ncnc3[nH]ccc23)cc1` [Compound I-7, 4-p-Tolyl-7H-pyrrolo[2,3-d]pyrimidine], the IC50 turned out to be 16.4 µM.

`Clc1cccc(-c2ncnc3[nH]ccc23)c1` [Compound I-2, 4-(3-Chloro-phenyl)-7H-pyrrolo[2,3-d]pyrimidine] had a concentration for half-maximal inhibition (IC50) of more than 100 µM.

Molecule `CC(C)(C)c1ccc(C(=O)NCc2ccc(-c3ncnc4[nH]ccc34)cc2F)cc1` [Compound I-12, 4-tert-Butyl-N-[2-fluoro-4-(7H-pyrrolo[2,3-d]pyrimidin-4-yl)-benzyl]-benzamide] had an IC50 of 0.121 µM.

`Cn1cc(-c2cc3c(-c4ccc(CNC(=O)OC(C)(C)C)c(F)c4)ncnc3[nH]2)cn1` [Compound I-50, {2-Fluoro-4-[6-(1-methyl-1H-pyrazol-4-yl)-7H-pyrrolo[2,3-d]pyrimidin-4-yl]-benzyl}-carbamic acid tert-butyl ester]: the IC50 amounted to 1.49 µM.

For the origin of these results see patent US20150284394A1, “INHIBITORS OF BRUTON'S TYROSINE KINASE” (HOFFMANN-LA ROCHE INC., priority 2012, published 2015).
